Columns and labels:
[1] = biological target: T1, Human recombinant NLRP3 protein (Homo sapiens, UniProt Q96P20); assay: Inhibition of the NLRP3 ATPase activity (cell-free, ADP-Glo); assay type: biochemical; conditions: isolated protein, 10 μM ATP
T1 construct: purchased BPS Bioscience, San Diego CA
Method: Inhibition of the NLRP3 ATPase activity. The efficacy of C77 to inhibit ATP hydrolysis by NLRP3 was directly assayed using a cell-free assay. Human recombinant NLRP3 protein (BPS Bioscience, San Diego CA) was incubated at 37° C. with different concentrations of C77 for 20 min, as previously described (Cocco, M., et al. (2017) Development of an Acrylate Derivative Targeting the NLRP3 Inflammasome for the Treatment of Inflammatory Bowel Disease. J. Med. Chem. 60, 3656-3671). 10 μM ultrapure ATP was then added, and reaction mixtures were further incubated for 45 min. ATP conversion into ADP was determined using the ADP-Glo Kinase Assay (Promega), following the recommendations of the manufacturer, in a SpectraMax i3x Multimode Detection Platform.

IL6 production = assay: IL-6 production in cell culture supernatant (ELISA); assay type: cell-based, mouse; conditions: FIG. 3B
Method: (§1) Cytokine quantification. IL-1β in cell supernatants and brain tissue samples—after the different treatment groups—was quantified using the Mouse IL-1 beta/IL-1F2 DuoSet ELISA kit (R&D systems), IL-6 in cell culture supernatant was measured through the Mouse IL-6 ELISA kit (ThermoFisher), TNF-α in cell culture supernatants was determined using the Mouse TNF-alpha DuoSet ELISA (R*D systems), and IL-18 in brain tissue was measured through the IL-18 Mouse ELISA Kit (Invitrogen) following the manufacturers' recommended protocol. IL-1β precursor and cleaved IL-1β in the FC of mice treated with vehicles, LPS, or C77-LPS was assessed by western blot. All samples were run in technical duplicates.

[2] = test system: ASC specks following NLRP3 activation; assay: ASC speck formation / ASC oligomerization in m-Cerulean ASC labeled macrophages; assay type: cell-based, murine; conditions: NLRP3 activation with LPS and ATP or HMGB1 and ATP (FIG. 3F)
Method: m-Cerulean ASC labeled macrophages. NLRP3 Knock Out immortalized murine macrophages, stably expressing m-Cerulean-ASC, and NLRP3-Flag were a kind donation of Prof. Eicke Latz, (Institute of Innate Immunity, University of Bonn, Germany). Murine macrophages were maintained in high glucose DMEM medium supplemented with 10% FBS, 1% sodium pyruvate, and passaged every 2-3 days, before reaching confluence.
For ASC speck formation evaluation, murine macrophages were seeded in 96 well SCREENSTAR black microplates with clear base, 24 hours before stimulation. Then, cells were incubated for 1 hour with different concentrations of the inhibitors, or with the same DMSO volume for positive and negative controls for NLRP3 activation—DMSO-LPS-ATP or only DMSO, respectively. 0.5 μM MCC950 was used as a positive control for inhibition of NLRP3-mediated ASC oligomerization. NLRP3 activation was induced through treatment with 250 ng/ml LPS for 2.5 hours, followed by addition of 4.5 mM ATP for 45 min. Cells were then fixed and counterstained in a single step, as previously described (Stutz, A. et al. ASC Speck Formation as a Readout for Inflammasome Activation. in The Inflammasome (eds. De Nardo, C. M. & Latz, E.) vol. 1040 91-101 (Humana Press, 2013).). For that, a stock solution of DRAQS in formaldehyde was used, being the final concentrations 1% formaldehyde and 2.5 μM DRAQ5.
ASC oligomerization determination. […] ASC specks in cells pretreated with C75, C77, C78, and C97, before NLRP3 activation (as above indicated), were visualized with a widefield Leica DMi8 fluorescence microscope, using the 20× objective. […] For image analysis and speck quantification, ImageJ was used https://imagej.nih.gov/ij/index.html. Speck and nuclei quantification was performed as previously described in Stutz et al. When required (overlapping nuclei), the watershed separation algorithm was used to separate the particles. […] The rate of speck positive cells was calculated by normalizing the number of speck positive cells to the number of nuclei. […]

NLRP3 = assay: In-vivo assessment of C77: brain cytokines in LPS-treated mice; set-up: species or system WT C57BL/6J mice
Method: as §1
Animals used in in-vivo assessments. WT C57BL/6J mice (stock #000664) were obtained from The Jackson Laboratory. Mice were housed in groups of five animals per cage on a 12:12 hours light/dark cycle. Water and food were provided ad libitum. 8-10 weeks males were used for experiments. All procedures were approved by the Institutional Animal Care and use Committee of the Icahn School of Medicine at Mount Sinai.
In-vivo assessment of C77. The ability of C77 to inhibit NLRP3 in-vivo was evaluated using WT C57BL/6J mice. C77 (50 mg/kg), or the same volume of DMSO vehicle, was intraperitoneally injected 2 hours before of LPS (15 mg/kg) or vehicle (PBS) administration. 1.5 hours later, the animals were sacrificed and their brain was isolated. Cortex, frontal cortex, hippocampus, and cerebellum regions from the right hemisphere were obtained for IL-1β analysis. The left hemisphere was used for gene expression analysis. N=5 animals per group.

[3] = 50 mg/kg IP 2 hours before 15 mg/kg LPS IP

T1 sequence (Q96P20 whole entry): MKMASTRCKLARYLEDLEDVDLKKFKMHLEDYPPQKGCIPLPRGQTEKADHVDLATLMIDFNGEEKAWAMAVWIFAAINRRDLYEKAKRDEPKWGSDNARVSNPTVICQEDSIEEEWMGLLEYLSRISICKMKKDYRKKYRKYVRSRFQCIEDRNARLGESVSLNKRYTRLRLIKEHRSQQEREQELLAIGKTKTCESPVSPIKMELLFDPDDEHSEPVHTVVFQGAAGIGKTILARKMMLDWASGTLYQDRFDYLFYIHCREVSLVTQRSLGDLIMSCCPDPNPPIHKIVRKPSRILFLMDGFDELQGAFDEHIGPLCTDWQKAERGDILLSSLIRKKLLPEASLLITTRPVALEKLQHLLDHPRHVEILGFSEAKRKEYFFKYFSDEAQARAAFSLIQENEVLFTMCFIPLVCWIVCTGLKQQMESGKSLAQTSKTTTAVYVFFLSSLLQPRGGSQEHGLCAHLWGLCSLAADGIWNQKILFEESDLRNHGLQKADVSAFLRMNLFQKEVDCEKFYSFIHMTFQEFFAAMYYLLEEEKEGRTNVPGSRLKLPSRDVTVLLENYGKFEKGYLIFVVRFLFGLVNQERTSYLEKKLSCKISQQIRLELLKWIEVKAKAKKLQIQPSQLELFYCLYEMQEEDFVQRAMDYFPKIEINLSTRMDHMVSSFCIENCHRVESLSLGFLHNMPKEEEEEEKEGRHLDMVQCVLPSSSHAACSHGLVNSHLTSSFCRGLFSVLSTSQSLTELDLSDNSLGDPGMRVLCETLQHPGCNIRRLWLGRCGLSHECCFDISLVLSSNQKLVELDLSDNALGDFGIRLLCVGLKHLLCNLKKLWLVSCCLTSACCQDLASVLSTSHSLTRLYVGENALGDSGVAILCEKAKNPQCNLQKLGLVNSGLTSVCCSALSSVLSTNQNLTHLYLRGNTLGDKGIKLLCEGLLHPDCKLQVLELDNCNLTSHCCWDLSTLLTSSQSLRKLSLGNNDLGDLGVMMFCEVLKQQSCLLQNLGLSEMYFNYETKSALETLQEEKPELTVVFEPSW

concentrations with statistically significant inhibition of NLRP3 ATPase activity [1]: ≥ 10 nM
IC50 ([1]; nonlinear fit): 0.04 µM
SMILES: O=C(Cn1c(=O)oc2ccccc21)NCc1cncc(-c2ccsc2)c1 [Compound C77]
inhibition of IL6 production (IL6 production): did not inhibit
concentrations with observable reduction of speck positive cells [2]: ≥ 10 nM
IL-1β levels in the cerebellum (NLRP3; [3]): significantly reduced IL-1β levels
IL-1β levels in the frontal cortex (NLRP3; [3]): significantly reduced IL-1β levels
IL-1β levels in the hippocampus (NLRP3; [3]): significantly reduced IL-1β levels
IL-18 levels in the frontal cortex (NLRP3; [3]): significantly reduced IL-18 levels
cleaved IL-1β versus pro IL-1β by western blot (NLRP3; frontal cortex of mice treated with C77-LPS): reduces the cleaved form of IL-β and not pro IL-1β
